From publication doi:10.1101/2022.07.20.500776v2 (biorxiv, 2022)

Tests used:
Type in all cases: biochemical
[1] = target: T1, Vibrio alkaline phosphatase (VAP) (Vibrio sp. G15-21, UniProt Q93P54); experiment: steady-state pNPP hydrolysis at […] nm, […] HEPES
T1 sequence (Q93P54 20-521): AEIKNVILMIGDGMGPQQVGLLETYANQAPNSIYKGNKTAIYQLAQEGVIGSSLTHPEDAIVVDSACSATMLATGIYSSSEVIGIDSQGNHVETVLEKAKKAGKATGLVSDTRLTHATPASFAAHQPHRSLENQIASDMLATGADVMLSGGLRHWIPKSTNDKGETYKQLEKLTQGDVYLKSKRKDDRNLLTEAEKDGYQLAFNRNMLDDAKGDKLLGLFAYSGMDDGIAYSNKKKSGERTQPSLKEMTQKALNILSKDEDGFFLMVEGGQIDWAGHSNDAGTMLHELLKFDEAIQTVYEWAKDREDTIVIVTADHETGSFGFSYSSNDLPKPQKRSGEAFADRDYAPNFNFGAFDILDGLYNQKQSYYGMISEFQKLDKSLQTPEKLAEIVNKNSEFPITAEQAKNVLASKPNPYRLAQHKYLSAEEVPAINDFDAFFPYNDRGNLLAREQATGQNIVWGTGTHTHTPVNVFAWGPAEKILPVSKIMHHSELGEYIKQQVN

[2] = target: T2, Vibrio alkaline phosphatase (VAP) (Vibrio sp. G15-21, UniProt Q93P54, K441L/Y442F); experiment: steady-state pNPP hydrolysis at […] nm, Michaelis-Menten fit; conditions: pH 8.0, 100 mM Tris-HCl, 1 mM MgCl2, 10 °C, no added NaCl
T2 sequence (Q93P54 20-521 K441L/Y442F): T1 sequence (Q93P54 20-521)

[3] = target: T3, Vibrio alkaline phosphatase (VAP) (Vibrio sp. G15-21, UniProt Q93P54, Y241P); experiment: as above; conditions: pH 8.0, 100 mM Tris-HCl, 1 mM MgCl2, 10 °C, no added NaCl
T3 sequence (Q93P54 20-521 Y241P): T1 sequence (Q93P54 20-521)

[4] = target: T4, Vibrio alkaline phosphatase (VAP) (Vibrio sp. G15-21, UniProt Q93P54, A240D); experiment: as above; conditions: pH 8.0, 100 mM Tris-HCl, 1 mM MgCl2, 10 °C, no added NaCl
T4 sequence (Q93P54 20-521 A240D): T1 sequence (Q93P54 20-521)

[5] = target: T5, Vibrio alkaline phosphatase (VAP) (Vibrio sp. G15-21, UniProt Q93P54, K441E); experiment: as above; conditions: pH 8.0, 100 mM Tris-HCl, 1 mM MgCl2, 10 °C, no added NaCl
T5 sequence (Q93P54 20-521 K441E): T1 sequence (Q93P54 20-521)

[6] = target: T6, Vibrio alkaline phosphatase (VAP) (Vibrio sp. G15-21, UniProt Q93P54, K441L); experiment: as above; conditions: pH 8.0, 100 mM Tris-HCl, 1 mM MgCl2, 10 °C, no added NaCl
T6 sequence (Q93P54 20-521 K441L): T1 sequence (Q93P54 20-521)

For `O=S(=O)(O)CCN1CCN(CCO)CC1` [HEPES], which Ki [1] is on record?
Its Ki is 21.3 mM.

Which Km [2] does the source give for `O=[N+]([O-])c1ccc(OP(=O)(O)O)cc1` [pNPP] here?
Its Km is 8.8 ± 2.4 µM.

What about the Km [3] of the same molecule?
Its Km is 4.9 ± 3.4 µM.

And the Km [4]?
Its Km is 12.8 ± 3.8 µM.

What about the Km [5] of the same molecule?
Its Km is 7 ± 1.6 µM.

What about the Km [6] of the same molecule?
Its Km is 6.6 ± 3.1 µM.
